Consider seven compounds from BindingDB's records for PubMed 11259544 (Florida State University, 2001).

The experiment deals with Cannabinoid receptor 1 (Taeniopygia guttata, UniProt P56971).
Cannabinoid receptor 1, sequence (P56971 whole entry): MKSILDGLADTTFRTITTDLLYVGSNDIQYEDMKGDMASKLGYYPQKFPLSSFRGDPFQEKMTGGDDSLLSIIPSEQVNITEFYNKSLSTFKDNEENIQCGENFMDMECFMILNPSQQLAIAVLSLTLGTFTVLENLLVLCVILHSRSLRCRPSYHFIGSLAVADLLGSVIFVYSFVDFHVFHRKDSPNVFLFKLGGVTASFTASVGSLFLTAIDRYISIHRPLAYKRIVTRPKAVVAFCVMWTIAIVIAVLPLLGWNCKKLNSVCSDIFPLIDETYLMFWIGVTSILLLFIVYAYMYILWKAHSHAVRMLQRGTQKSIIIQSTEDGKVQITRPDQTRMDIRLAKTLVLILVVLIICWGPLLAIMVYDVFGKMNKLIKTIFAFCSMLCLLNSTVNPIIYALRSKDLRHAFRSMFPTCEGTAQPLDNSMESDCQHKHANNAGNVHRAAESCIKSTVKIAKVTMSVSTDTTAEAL
By Ki is commonly meant a measure of affinity in units of concentration, obtained from inhibition or displacement. As for `CC(=O)Oc1cc(OC(C)CCCc2ccccc2)cc2c1C1CC(O)CCC1C(C)N2` (configuration not stated) [NSC_107822], the Ki was 8.24 nM. In other words, the single-digit nanomolar range.

`CCCCCCC(C)(C)c1cc(O)c2c(c1)OC(C)(C)[C@@H]1CC=C(CO)CC21` (stereo partly drawn) [(R)-3-(1,1-Dimethyl-heptyl)-9-hydroxymethyl-6,6-dimethyl-6a,7,10,10a-tetrahydro-6H-benzo[c]chromen-1-ol] gave a Ki of 2.32 nM.

For `Cc1c(C(=O)NN2CCCCC2)nn(-c2ccc(Cl)cc2Cl)c1-c1ccc(Cl)cc1` [SR141716], the Ki was found to be 89.3 nM.

For the compound `CCCCCCC(C)(C)c1ccc([C@H]2C[C@@H](O)CC[C@@H]2CCCO)c(O)c1` [CP-56667 [(+)-AC],XV], affinity was put at a Ki of 5.92 nM. Compared with the last compound, the Ki is about 15-fold lower.

`Cc1c(C(=O)c2cccc3ccccc23)c2cccc3c2n1[C@H](CN1CCOCC1)CO3` [WIN55212-2] displayed a Ki of 63.3 nM. This Ki lies about 11-fold higher than the previous one.

As for `CCCCC/C=C\C/C=C\C/C=C\C/C=C\CCCC(=O)NC(C)CO` (configuration not stated), the Ki was 166 nM.

Take `CCCCC/C=C\C/C=C\C/C=C\C/C=C\CCCCCC(=O)NCCO`: the affinity, expressed as Ki, was 2790 nM. This Ki lies about 17-fold higher than the previous one.
